Assay results from publication PMC9351465, “Mechanism-based heparanase inhibitors reduce cancer metastasis in vivo” (Proceedings of the National Academy of Sciences of the …, 2022).
Where “and” joins values, the source holds several entries; their conditions need not be identical. Equal values may be shown once.

Target: T1, HPSE (Homo sapiens, UniProt Q9Y251)
T1 sequence (Q9Y251 158-543 limits assumed): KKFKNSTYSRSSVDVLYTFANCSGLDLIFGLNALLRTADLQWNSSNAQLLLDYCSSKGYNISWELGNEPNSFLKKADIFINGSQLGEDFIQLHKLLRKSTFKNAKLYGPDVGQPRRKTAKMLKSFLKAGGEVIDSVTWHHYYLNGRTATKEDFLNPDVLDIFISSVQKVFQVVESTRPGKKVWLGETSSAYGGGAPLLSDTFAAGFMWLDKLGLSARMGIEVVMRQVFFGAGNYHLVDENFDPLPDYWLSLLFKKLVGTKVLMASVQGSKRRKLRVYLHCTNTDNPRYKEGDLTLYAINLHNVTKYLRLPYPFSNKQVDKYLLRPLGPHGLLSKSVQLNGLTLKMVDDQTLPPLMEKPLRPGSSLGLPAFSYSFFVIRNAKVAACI
T1 sequence (Q9Y251 36-109 limits assumed): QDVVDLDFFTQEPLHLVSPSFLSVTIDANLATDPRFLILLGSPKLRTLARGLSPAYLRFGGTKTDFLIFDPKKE
Test: colorimetric fondaparinux cleavage assay
Type: biochemical
Settings: 200 ng/mL HPSE, 100 µM fondaparinux, pH 5.0, 37°C, 18 h, n = 2; read-out: IC50, HPSE-mediated fondaparinux cleavage
Description: We next investigated the ability of our inhibitors to abrogate HPSE processing of its native oligosaccharide substrates, using a colorimetric assay that detects cleavage of the synthetic HS pentasaccharide fondaparinux ([49]). […]
Fondaparinux cleavage was performed essentially as previously described (9). Briefly, assays were carried out in 96 well plates (Nunc) pretreated with 4% BSA in TBS-T (20 mM Tris pH 7.4, […]
100 µL reactions were set up in 40 mM NaOAc pH 5.0 buffer, containing final concentrations of 200 ng/mL HPSE, 100 µM Fondaparinux (Arixtra) and specified concentrations of inhibitors.
Reactions were incubated at 37°C for 18 h, then quenched with 100 µL 0.1 M NaOH supplemented with 1.7 mM WST-1 tetrazolium salt, and incubated at 60°C for 1 h. Absorbance at 584 nm was read using an ELISA plate reader (BIO-TEK Instruments). All reactions were carried out in technical duplicate. Data were plotted and analyzed using Sigmaplot (Systat). […]

IC50: 460 nM and ~460 nM
SMILES: CC(=O)N[C@H]1[C@@H](O[C@H]2[C@H](O)[C@@H](O)[C@@H]3O[C@@H]3[C@@H]2C(=O)O)O[C@H](CO)[C@@H](O)[C@@H]1O [compound 2]
